Data from ChEMBL document CHEMBL3046543, “Larvicidal and adulticidal activity of alkylphthalide derivatives from rhizome of Cnidium officinale against Drosophila melanogaster” (J Agric Food Chem, 2005).

Experiments:
Format in all cases: functional
Drosophila melanogaster [1] = test: Relative toxicity, LD50 for rotenone Drosophila melanogaster adulticidal activity to LD50 for compound Drosophila melanogaster adulticidal activity
Drosophila melanogaster [2] = test: Insecticidal activity against 5 to 7 days old adult Drosophila melanogaster assessed as mortality measured as inability to move compound treated in diet at 25 degC and >90% RH treated for 8 days
Drosophila melanogaster [3] = test: Relative toxicity, LC50 for rotenone Drosophila melanogaster larvicidal activity to LC50 for compound Drosophila melanogaster larvicidal activity
Drosophila melanogaster [4] = test: Insecticidal activity against Drosophila melanogaster larvae assessed as mortality compound treated in diet at 25 degC and >90% RH treated for 8 days; conditions: feed or water, 192 h

SMILES	Ratio (Drosophila melanogaster [1])	LD50 (Drosophila melanogaster [2]) [µg]	RatioLC50 (Drosophila melanogaster [3])	LC50 (Drosophila melanogaster [4]) [mM]
CCCC[C@@H]1OC(=O)c2ccccc21 [(3S)-BUTYLPHTHALIDE]	0.62	5.93	0.004	4.99
CCCC[C@@H]1OC(=O)C2=CCCC[C@H]21 [NEOCNIDILIDE]	0.34	10.82	0.002	9.9
C=C(C)[C@H]1Cc2c(ccc3c2O[C@@H]2COc4cc(OC)c(OC)cc4[C@@H]2C3=O)O1 [ROTENONE]	1	3.68	1	0.02
CCC/C=C1\OC(=O)C2=C1CCC=C2 [LIGUSTILIDE]	<0.07	>50	0.009	2.54
CCCC[C@@H]1OC(=O)[C@@H]2C=CCC[C@H]12 [CNIDILIDE]	0.4	9.17	<0.001	> 16
